According to patent US20110306554A1, “PEPTIDE CAPABLE OF BINDING TO IMMUNOGLOBULIN” (priority 2009, published 2011):
Entries after “also recorded” stand apart in the source; their conditions may differ. Non-standard residues stand in square brackets, D forms with d. No end group written: not given here.

Tests used:
[1] = test system: Cy3-labeled goat anti-mouse immunoglobulin (IgG); experiment: Peptide array of C1q subunit 15-mers probed with Cy3-labeled immunoglobulin; format: binding; conditions: peptide spots on glass array, 4° C., 12 hours, background fluorescence intensity is 2.6
Source text: The amino acid sequences of the A, B, and C subunit chains of human C1q, are shown in SEQ ID NOs: 17 to 19, and the nucleotide sequences in SEQ ID NOs: 20 to 22. Based on each of the amino acid sequences, sequences having 15 amino acids (residues) from each subunit and shifted at intervals of three amino acids, were synthesized on a glass array as synthetic peptides (Peptide Nos. 1 to […], and 193 to 270 for the A, B, and C chains, respectively). The synthesis of each peptide was carried out at a specific location on the array, so as to prepare a peptide array which included the synthetic peptides covering the entire amino acid sequences of the subunits of C1q. The preparation of the array was outsourced to JPT Peptide Technologies GmbH.
To the peptide array was applied 330 μl of an Cy3-labeled goat anti-mouse immunoglobulin (IgG) (1 mg/ml; Zymed Laboratories) diluted 1000-fold with PBS (10 mM phosphate buffer, pH 7.0, 0.1 M NaCl), and the array was sealed and then incubated at 4° C. for 12 hours. After that, the array was washed once with methanol and then 5 times with Milli-Q water for 5 minutes each. The array slide was centrifuged and dried, and scanned with a fluorescence scanner (Agilent DNA microarray scanner; Agilent Technologies), so that fluorescence intensity was quantified at the respective peptide spots on the array using a software (Feature Extraction software; Agilent Technologies). Several spots displaying strong fluorescence intensities were detected. […] Note that in the description, the amino acids are denoted by the one-letter code known in the art.

[2] = test system: Monoclonal antibody cocktail-induced arthritis mice; experiment: Arthritis suppressing effects on arthritis-induced mice, Part 4; format: in vivo; conditions: intraperitoneal 100 mg/kg once a day from day 4; methotrexate 0.1 mg/kg
Protocol: Monoclonal antibody cocktail-induced arthritis mice were used to examine arthritis suppressing effects of peptides which are indicated as R13 in the section (3) in Example 2 and as R19 and R21 in the section (4) in Example 2. Arthritis was caused by intravenous administration of 2 mg/mouse of an arthritis-inducing monoclonal antibody cocktail and three days later, intraperitoneal administration of 50 μg/mouse of LPS. The peptides […] days from four days after the administration of the arthritis-inducing monoclonal antibody cocktail, and arthritis suppressing effect was examined in terms of clinical score and hind-limb volume determination.
The required amount was calculated for each peptide, based on the animal weight. […]
Measurement of body weight of animals was made on days 0, 3, 6, 9, 12, and 14 during the study period, with day 0 being the day of administration of the arthritis-inducing monoclonal antibody cocktail. Observation of general condition was made on a daily basis. […]
Results of examinations were expressed by mean value±standard error and analyzed using EXSAS (Version 7.1.6, Arm Systex Co., Ltd.). […] Quantitative data, such as body weights and leg volumes, were subjected to Bartlett's test, followed by Dunnett's multiple comparison test when the variance was uniform or Steel's multiple comparison test when the variance was not uniform.

[3] = test system: type III allergic (Arthus) reaction-induced rats; experiment: Immune-complex disease suppression in type III allergic (Arthus) reaction-induced rats, Part 1; format: in vivo
Protocol: Using sixty-four 7-week-old male Slc:Wistar rats, examinations were made on peptides R1, R2, and R5, in two series of examinations, each using a different method of administration (intraperitoneal administration and tail vein administration). Acclimation was carried out by giving normal solid chow CRF-1 for a period of 9 days or longer. The back of the animals was shaved on the day prior to administration, and a mixed solution of OVA and Evans blue dye was administered into the tail vein on the day of administration. Each peptide solution was administered intraperitoneally or into the tail vein 30 minutes or 50 minutes after the administration of the mixed solution of OVA and Evans blue dye, respectively. For intracutaneous administration of an anti-OVA solution, […] was intracutaneously administered in the back of animals at a dose of 0.1 ml/site 30 minutes or 10 minutes after the administration of the tested substance in the case of intraperitoneal or intravenous administration, respectively, so as to generate a local Arthus reaction. After the reaction was allowed to be generated for 4 hours, the animals were euthanized, the blood was removed thoroughly, and then the dorsal skin was exfoliated. The Arthus reaction sites on the exfoliated skin were punched out, and the Evans blue dye was extracted from the punched skin overnight. The amount of dye leakage was quantified by measuring absorbance for the Evans blue dye with a spectrophotometer and using a calibration curve (see, H. Okamoto, Y. Iwahisa, and M. Terasawa, “Suppression of the Arthus reaction by Y-24180, a potent and specific antagonist of platelet-activating factor”, Agents Actions, 35:149-158 (1992), for experimental procedures used in Example 4).
A predetermined amount of each peptide (peptides R1, R2, and R5) was dissolved in physiological saline to make a 20 mg/ml solution. A 2 mg/ml solution was prepared by diluting the 20 mg/ml solution 10-fold with physiological saline. A 5 mg/ml solution was prepared by dissolving each peptide in a predetermined amount in physiological saline to make a prepared solution.
A mixed solution of OVA and Evans blue dye was administered into the tail vein at a dose of 2 ml/kg. Each peptide solution was administered intraperitoneally or into the tail vein 30 minutes or 50 minutes after the administration of the mixed solution of OVA and Evans blue dye, respectively. For intracutaneous administration of an anti-OVA solution, […] was intracutaneously administered in the back of animals at a dose of 0.1 mL/site 30 minutes or 10 minutes after the administration of the tested substance in the case of intraperitoneal or intravenous administration, respectively, so as to generate a local Arthus reaction. Intracutaneous administration was conducted at 2 sites for PBS and at 2 sites for the anti-OVA solution per animal. After the reaction was allowed to be generated for 4 hours, the animals were euthanized by decapitation under ether anesthesia, the blood was removed thoroughly, and then the dorsal skin was exfoliated. The Arthus reaction sites on the exfoliated skin were punched out and subjected to dye extraction.
Several cuttings were made in the skin strips that were punched out with a punch. […] The amount of dye leakage was calculated from a calibration curve of known amounts of the dye.
The mean value (mean)±standard deviation (SD) for each group was calculated with body-weight measurements and amounts of dye leakage. […]

[4] = test system: Monoclonal antibody cocktail-induced arthritis mice; experiment: Arthritis suppressing effects on arthritis-induced mice, Part 2; format: in vivo; conditions: 10 mg/kg intraperitoneal twice a day, 14 consecutive days from day 0
Protocol: Monoclonal antibody cocktail-induced arthritis mice were used to examine arthritis suppressing effects of peptides which are indicated as R1, R2, and R5 in Example 2. Arthritis was caused by intravenous administration of 2 mg/mouse of an arthritis-inducing monoclonal antibody cocktail and three days later, intraperitoneal administration of 50 μg/mouse of LPS. The peptides were administered at a dose of 10 mg/kg twice a day for a period of 14 consecutive days from the day of administration of the arthritis-inducing monoclonal antibody cocktail (day 0), and arthritis suppressing effect was examined in terms of clinical score. Experiments were carried out in a similar way to those in the section (1) in Example 3.
The required amount was calculated for each peptide, based on the animal weight. Each peptide solution was prepared to make a concentration of 1 mg/ml in a 0.5% methyl cellulose solution, and the prepared peptide solution was cold stored.
Measurement of body weight of animals was made on days 0, 3, 6, 9, 12, and 14 during the study period, with day 0 being the day of administration of the arthritis-inducing monoclonal antibody cocktail. Observation of general condition was made on a daily basis.
Mice were weighed on the day prior to start of administration and randomly assigned to groups using a grouping software, so that the average body weight values of the groups were approximately equal. To twenty 7-week-old mice, the arthritis-inducing monoclonal antibody cocktail was intravenously administered at a dose of 2 mg/mouse on day 0, and LPS was intraperitoneally administered at a dose of 50 μg/mouse on day 3.
Each peptide solution was given via intraperitoneal administration twice a day, morning and afternoon, from day 0. As a control, a 0.5% solution of methyl cellulose was intraperitoneally administered twice a day from day 0. A needle (26G; Terumo) and a syringe (1.0-ml capacity; Terumo) were used for administration. […]
Results of examinations were expressed by mean value±standard error and analyzed using EXSAS (Version 7.1.6, Arm Systex Co., Ltd.). […]

[5] = target: Cy3-labeled goat anti-mouse immunoglobulin (IgG) (goat); experiment: peptide array on glass, Cy3-labelled goat anti-mouse IgG, fluorescence scanner; background 2.6
[6] = intraperitoneal administration, 10 or 100 mg/kg
[7] = tail vein administration, 10 mg/kg

Molecule | Fluorescence intensity [1] | Fluorescence intensity [5] | other results
SGKFTCKVPGLYYFT (Immunoglobulin binding peptide) [R3] | 65,300 | – | –
FTCKVPGLYYFTYHA (Immunoglobulin binding peptide) [R4] | 65,311 | – | –
KFTCKVPGLYYFVYH (Immunoglobulin binding peptide) [compound 245] | 65,311 | – | –
dSdTGdKdFdTdSdKdVdPGdLdYdYdF ([dS][dT]G[dK][dF][dT][dS][dK][dV][dP]G[dL][dY][dY][dF]) [R21] | – | – | arthritis-suppressing effect (clinical score) compared with methotrexate [2]: arthritis-suppressing effect comparable to or greater than that of methotrexate
CKVPGLYYFVYHASH (Immunoglobulin binding peptide) [R6] | 65,313 | – | –
CKVPGLYYF (Immunoglobulin binding peptide) [R2] | – | – | effect of immune-complex disease suppression (dye leakage) [3, 6]: clear and satisfactory effects of immune-complex disease suppression; also recorded: suppressed; effect of immune-complex disease suppression (dye leakage) [3, 7]: clear and satisfactory effects of immune-complex disease suppression; also recorded: suppressed; arthritis suppressing effect (clinical score) [4]: Arthritis suppressing effects were observed; also recorded: arthritis was suppressed
PGLYYF (Immunoglobulin binding peptide) [R1] | – | – | effect of immune-complex disease suppression (dye leakage) [3, 6]: clear and satisfactory effects of immune-complex disease suppression; also recorded: suppressed; effect of immune-complex disease suppression (dye leakage) [3, 7]: clear and satisfactory effects of immune-complex disease suppression; also recorded: suppressed; arthritis suppressing effect (clinical score) [4]: Arthritis suppressing effects were observed; also recorded: arthritis was suppressed
CKVPGLYYFVYHASH [peptide R6 (…)] | – | 65300 | –
KFTCKVPGLYYFVYH [Peptide No. 245 (…)] | – | 65300 | –
STGKFTCKVPGLYYF [peptide R5 (…)] | – | 65300 | –
SGKFTCKVPGLYYFT [peptide R3 (…)] | – | 65300 | –
FTCKVPGLYYFTYHA [peptide R4 (…)] | – | 65300 | –
